Measurements as given in US20240226049A1, “METHODS OF TREATMENT USING BEMPEDOIC ACID” (Esperion Therapeutics, Inc., priority 2023, published 2024).
Values joined by “and” are separate entries in the source; they are usually repeats but may differ in a detail not shown here. Equal entries are not always repeated.

Tested on: primary prevention patients unable to tolerate recommended doses of statins
Experiment: CLEAR OUTCOMES primary prevention subgroup (Example 2): time-to-event efficacy end points
Assay type: in vivo, human
Method: The rationale, design and methods of the CLEAR Outcomes trial is described in Example 1. The trial was conducted at 1250 sites in 32 countries and designed by the Cleveland Clinic Coordinating Center for Clinical Research (C5Research) and an academic Executive Committee in collaboration with the sponsor. The protocol was approved by ethics committees at participating sites and all patients provided written informed consent before enrollment. A contract research organization collected the data which were transferred to C5Research at completion of the trial whose statisticians conducted the analyses described herein. An independent Data Monitoring Committee monitored the trial.
Primary prevention patients 18 to 85 years of age with an LDL cholesterol ≥100 mg/dL with clinical features placing them at high risk for a first cardiovascular event were eligible. Criteria for high cardiovascular risk included risk scores, such as the Reynolds Risk Score and the SCORE project (Ridker et al., Development and validation of improved algorithms for the assessment of global cardiovascular risk in women: the Reynolds Risk Score, JAMA. 2007 Feb. 14; 297(6):611-9; Ridker et al., C-reactive protein and parental history improve global cardiovascular risk prediction. The Reynolds Risk Score for men, Circulation. 2008; 118: 2243-2251; European Guidelines on CVD Prevention in Clinical Practice. 2016. Eur J Prev Cardiol. 2016 July; 23(11):NP1-NP96), a coronary artery calcium score >400 Agatston units (AU) or presence of either type 1 or 2 diabetes in women aged >65 years or men older than 60 years.
Investigators were responsible for assessing the patient for statin intolerance. Patients had to report statin intolerance due to an adverse effect that started or increased during statin therapy and resolved or improved after statin therapy was discontinued. Entry criteria required inability to tolerate 2 or more statins at any dose or 1 statin and unwillingness to attempt a second statin or advised by a physician not to attempt taking a second statin. Both the patient and site investigator were required to provide written confirmation that the patient was statin intolerant and aware of the benefits of statins to reduce the risk of cardiovascular events, including death, and acknowledge that many patients who are unable to tolerate a statin can tolerate a different statin or dose. Patients could be enrolled if they tolerated a very low average daily statin dose defined as rosuvastatin <5 mg, atorvastatin <10 mg, simvastatin <10 mg, lovastatin <20 mg, pravastatin <40 mg, fluvastatin <40 mg, or pitavastatin <2 mg. Other background lipid-lowering therapies were permitted, including ezetimibe, niacin, bile acid resins, fibrates, and/or proprotein convertase subtilisin kexin type 9 (PCSK9) inhibitors.
Eligible patients entered a 4-week run-in period during which patients were treated with single-blind placebo. If patients were intolerant to placebo treatment or if adherence was <80% by tablet count, they were not eligible for randomization. Patients who successfully completed the run-in period were randomly assigned in a 1:1 ratio to receive a 180 mg oral dose of bempedoic acid or matching placebo, administered daily. During the trial, LDL cholesterol and hsCRP results were masked. Beginning 6 months after randomization, the central laboratory notified the investigator, who remained blinded to treatment assignment, if the patient's LDL cholesterol level was ≥25% higher than baseline. Repeat testing was performed after the patient was counseled about diet and encouraged to take all medications as prescribed. The patient returned for a repeat fasting blood lipid profile to confirm whether the LDL cholesterol value exceeded the threshold criteria. If confirmed, the patient's treatment regimen for LDL cholesterol lowering could be adjusted, per standard of care and local practice. […]

[1] = primary prevention patients, 180 mg oral daily, N = 2100
[2] = vs placebo, primary prevention, adjusted for baseline characteristics
[3] = vs placebo, primary prevention, adjusted for baseline characteristics, listed as bempedoic acid
[4] = vs placebo, primary prevention, unadjusted

SMILES: CC(C)(CCCCCC(O)CCCCCC(C)(C)C(=O)O)C(=O)O [Bempedoic Acid, Bempedoic acid]
- 3-component MACE, % of patients [1]: 4.0%
- 3-component MACE, number of patients [1]: 83 number of patients
- 5-component MACE, % of patients [1]: 5.3%
- 5-component MACE, number of patients [1]: 112 number of patients
- All-cause mortality, % of patients [1]: 3.6%
- All-cause mortality, number of patients [1]: 75 number of patients
- Cardiovascular death, % of patients [1]: 1.8%
- Cardiovascular death, number of patients [1]: 37 number of patients
- Coronary revascularization, % of patients [1]: 2.4%
- Coronary revascularization, number of patients [1]: 50 number of patients
- Fatal and non-fatal MI, % of patients [1]: 1.4%
- Fatal and non-fatal MI, number of patients [1]: 29 number of patients
- Fatal and non-fatal stroke, % of patients [1]: 1.3%
- Fatal and non-fatal stroke, number of patients [1]: 27 number of patients
- Hospitalization for unstable angina, % of patients [1]: 0.5%
- Hospitalization for unstable angina, number of patients [1]: 10 number of patients
- Primary efficacy endpoint (MACE-4), % of patients [1]: 5.3%
- Primary efficacy endpoint (MACE-4), number of patients [1]: 111 number of patients
- number need to treat (NNT) to prevent one primary composite outcome (primary prevention patients, 4-component MACE): 43 patients
- effect on stroke and coronary revascularization (primary prevention patients, vs placebo): not significantly reduced
- 3-component MACE, Hazard Ratio (95% CI), adjusted [2]: 0.64 (0.48-0.84)
- 5-component MACE, Hazard Ratio (95% CI), adjusted [2]: 0.69 (0.54-0.88)
- All-cause mortality, Hazard Ratio (95% CI), adjusted [2]: 0.73 (0.54-0.98)
- Cardiovascular death, Hazard Ratio (95% CI), adjusted [2]: 0.61 (0.41-0.92)
- Coronary revascularization, Hazard Ratio (95% CI), adjusted [2]: 0.71 and 0.71 (0.49-1.03)
- Fatal and non-fatal MI, Hazard Ratio (95% CI), adjusted [2]: 0.61 (0.39-0.98)
- Fatal and non-fatal stroke, Hazard Ratio (95% CI), adjusted [2]: 0.76 (0.46-1.26)
- Hospitalization for unstable angina, Hazard Ratio (95% CI), adjusted [2]: 0.58 (0.26-1.27)
- Primary efficacy endpoint (MACE-4), Hazard Ratio (95% CI), adjusted [2]: 0.70 (0.55-0.89)
- 3-component MACE, Hazard Ratio (95% CI), adjusted [3]: 0.64
- 5-component MACE, Hazard Ratio (95% CI), adjusted [3]: 0.69
- All-cause mortality, Hazard Ratio (95% CI), adjusted [3]: 0.73
- Cardiovascular death, Hazard Ratio (95% CI), adjusted [3]: 0.61
- Fatal and non-fatal MI, Hazard Ratio (95% CI), adjusted [3]: 0.61
- Fatal and non-fatal stroke, Hazard Ratio (95% CI), adjusted [3]: 0.76
- Hospitalization for unstable angina, Hazard Ratio (95% CI), adjusted [3]: 0.58
- Primary efficacy endpoint (MACE-4), Hazard Ratio (95% CI), adjusted [3]: 0.70
- 3-component MACE, Hazard Ratio (95% CI), unadjusted [4]: 0.61 (0.46-0.80)
- 5-component MACE, Hazard Ratio (95% CI), unadjusted [4]: 0.67 (0.53-0.86)
- All-cause mortality, Hazard Ratio (95% CI), unadjusted [4]: 0.69 (0.51-0.92)
- Coronary revascularization, Hazard Ratio (95% CI), unadjusted [4]: 0.73 (0.50-1.05)
- Death from cardiovascular causes, Hazard Ratio (95% CI), unadjusted [4]: 0.57 (0.38-0.85)
- Fatal and non-fatal MI, Hazard Ratio (95% CI), unadjusted [4]: 0.61 (0.38-0.97)
- Fatal and non-fatal stroke, Hazard Ratio (95% CI), unadjusted [4]: 0.72 (0.44-1.19)
- Hospitalization for unstable angina, Hazard Ratio (95% CI), unadjusted [4]: 0.58 (0.27-1.27)
- Primary efficacy endpoint (MACE-4), Hazard Ratio (95% CI), unadjusted [4]: 0.68 (0.53-0.87)
